Laboratory results taken from ChEMBL document CHEMBL5331068, “Briarane-type diterpenoids, the inhibitors of osteoclast formation by interrupting Keap1-Nrf2 interaction and activating Nrf2 pathway” (Eur J Med Chem, 2023).
Activity calls are given as the source filed them. The calls are words filed in the database; no cut-off is given here.

Experiments:
BMDM = experiment: Anti-osteoclastogenesis activity in C57BL/6 mouse BMDM cells assessed as inhibition of RANKL-induced osteoclastogenesis at 10 uM incubated for 7 days in the presence of M-CSF by TRAP-staining based microscopic analysis relative to control; type: functional; details: for inhibition at 10 µM: C57BL/6, BMDM, 168 h, time 7 day
[1] = Cytotoxicity against C57BL/6 mouse BMDM cells incubated for 48 hrs by MTT assay; type: toxicity, cell-based; details: BMDM cells (bone marrow-derived macrophages)
[2] = molecular target: Kelch-like ECH-associated protein 1 (Homo sapiens, UniProt Q14145); experiment: Binding affinity to recombinant human Keap1 by SPR analysis
Sequence of Kelch-like ECH-associated protein 1 (Q14145 whole entry): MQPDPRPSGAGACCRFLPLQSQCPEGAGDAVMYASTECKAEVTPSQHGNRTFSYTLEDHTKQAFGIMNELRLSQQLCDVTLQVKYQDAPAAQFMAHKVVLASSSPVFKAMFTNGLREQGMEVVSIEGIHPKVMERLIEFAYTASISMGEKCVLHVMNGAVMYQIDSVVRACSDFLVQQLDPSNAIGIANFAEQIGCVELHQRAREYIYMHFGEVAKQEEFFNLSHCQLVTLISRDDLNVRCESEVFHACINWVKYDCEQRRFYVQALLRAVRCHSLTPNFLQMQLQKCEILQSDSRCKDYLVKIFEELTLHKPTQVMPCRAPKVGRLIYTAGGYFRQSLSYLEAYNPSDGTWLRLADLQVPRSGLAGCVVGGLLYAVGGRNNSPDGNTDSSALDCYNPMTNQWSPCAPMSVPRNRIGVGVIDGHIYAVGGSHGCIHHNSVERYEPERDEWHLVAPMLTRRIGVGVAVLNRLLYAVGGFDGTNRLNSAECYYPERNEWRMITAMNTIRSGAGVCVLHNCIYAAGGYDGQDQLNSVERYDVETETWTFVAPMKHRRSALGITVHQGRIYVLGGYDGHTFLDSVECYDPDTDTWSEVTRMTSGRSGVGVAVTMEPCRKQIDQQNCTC

Row | Compound | inhibition at 10 µM (BMDM) [%] | CC50 at 48 h [1] [µM] | Activity [2] | inhibition (BMDM; time 7.0 day)
1 | C=C1/C=C/[C@H](OC(C)=O)[C@@]2(C)[C@@H](OC(C)=O)CC[C@]3(CO3)[C@@H]2[C@H](OC(C)=O)[C@]2(O)[C@@H](C)C(=O)O[C@H]2[C@H]1Cl [JUNCEELLOLIDE C] | 75 | > 50 |  | 
2 | C=C1CC[C@H](OC(C)=O)[C@@]2(C)[C@@H](OC(C)=O)C[C@@H](OC(C)=O)[C@]3(CO3)[C@@H]2[C@H](OC(C)=O)[C@]2(O)[C@@H](C)C(=O)O[C@H]2[C@H]1Cl | 13.5 | > 50 | Active | 
3 | CC(=O)O[C@H]1CC[C@]2(CO2)[C@@H]2[C@H](OC(C)=O)[C@@]3(O)[C@H](/C=C(/C)[C@H](OC(C)=O)C[C@H](OC(C)=O)[C@@]12C)OC(=O)[C@@H]3C [11ALPHA,20ALPHA-EPOXYJUNCEELLOLIDE] | 58.1 | > 50 |  | 
4 | CC(=O)O[C@H]1/C=C\C(CO)=C/[C@@H]2OC(=O)[C@H](C)[C@@]2(O)[C@@H](OC(C)=O)[C@H]2[C@@]3(CO3)[C@H](OC(C)=O)C[C@H](OC(=O)CC(C)C)[C@]12C | 68 | > 50 |  | 
5 | C=C1/C=C/[C@H](OC(C)=O)[C@@]2(C)[C@@H](OC(C)=O)C[C@@H](OC(=O)CC(C)C)[C@]3(CO3)[C@@H]2[C@H](OC(C)=O)[C@]2(O)[C@@H](C)C(=O)O[C@H]2[C@H]1Cl [GEMMACOLIDE I] | 62.2 | > 50 |  | 
6 | CCOCC1=C/[C@@H]2OC(=O)[C@H](C)[C@@]2(O)[C@@H](OC(C)=O)[C@H]2[C@@]3(CO3)[C@H](OC(=O)CC(C)C)C[C@H](OC(C)=O)[C@]2(C)[C@@H](OC(C)=O)/C=C\1 | 51.2 | > 50 |  | 
7 | CC(=O)O[C@H]1[C@@H](OC(=O)CC(C)C)[C@]2(CO2)[C@@H]2[C@H](OC(C)=O)[C@@]3(O)[C@H](/C=C(CO)\C=C/[C@H](OC(C)=O)[C@@]2(C)[C@H]1OC(C)=O)OC(=O)[C@@H]3C | 55.8 | > 50 |  | 
8 | CC(=O)O[C@H]1[C@@H](OC(=O)CC(C)C)[C@](O)(CO)[C@@H]2[C@H](OC(C)=O)[C@@]3(O)[C@H](/C=C(CCl)\C=C/[C@H](OC(C)=O)[C@@]2(C)[C@H]1OC(C)=O)OC(=O)[C@@H]3C | 20.9 | > 50 | inactive | 
9 | C=C1[C@H](Cl)[C@@H]2OC(=O)[C@H](C)[C@]23O[C@]1(O)C[C@H](OC(C)=O)[C@@]1(C)[C@@H](OC(C)=O)C[C@@H](OC(=O)CC(C)C)[C@]2(CO2)[C@@H]1[C@@H]3OC(C)=O |  | > 50 |  | inactive
10 | CC(=O)O[C@H]1/C=C\C(CCl)=C/[C@@H]2OC(=O)[C@H](C)[C@@]2(O)[C@@H](OC(C)=O)[C@H]2[C@@]3(CO3)[C@H](OC(C)=O)C[C@H](OC(=O)CC(C)C)[C@]12C | 18 | > 50 |  | 
11 | CCOCC1=C/[C@@H]2OC(=O)[C@H](C)[C@@]2(O)[C@@H](OC(C)=O)[C@H]2[C@@]3(CO3)[C@H](OC(=O)CC(C)C)C(OC(C)=O)[C@H](OC(C)=O)[C@]2(C)[C@@H](OC(=O)COC(=O)CC(C)C)/C=C\1 (some centres not stated) | 41.9 | > 50 |  | 
12 | C=C1/C=C/[C@H](OC(C)=O)[C@@]2(C)[C@@H](OC(C)=O)C[C@@H](OC(C)=O)[C@]3(CO3)[C@@H]2[C@H](OC(C)=O)[C@]2(O)[C@@H](C)C(=O)O[C@H]2[C@H]1Cl [GEMMACOLIDE H] | 13.1 | > 50 |  | 
13 | CC(=O)O[C@H]1/C=C\C(CO)=C/[C@@H]2OC(=O)[C@H](C)[C@@]2(O)[C@@H](OC(C)=O)[C@H]2[C@@]3(CO3)[C@H](OC(C)=O)C[C@H](OC(C)=O)[C@]12C |  | < 10 |  | 
14 | C=C1CC[C@H](OC(C)=O)[C@@]2(C)[C@@H](OC(C)=O)C[C@@H](OC(=O)CC(C)C)[C@]3(CO3)[C@@H]2[C@H](OC(C)=O)[C@]2(O)[C@@H](C)C(=O)O[C@H]2[C@H]1Cl [JUNCENOLIDE J] | 98.8 | > 50 |  | 
15 | C=C1CC[C@H](OC(C)=O)[C@]2(C)[C@@H](OC(C)=O)CC/C(C)=C\[C@@H]3OC(=O)[C@H](C)[C@@]3(O)[C@@H](OC(C)=O)[C@@H]12 | 64.5 | > 50 |  | 
16 | C=C1/C=C\[C@@H](OC(=O)COC(=O)CC(C)C)[C@@]2(C)[C@@H](OC(C)=O)[C@@H](OC(C)=O)[C@@H](OC(=O)CC(C)C)[C@]3(CO3)[C@@H]2[C@H](OC(C)=O)[C@]2(O)[C@@H](C)C(=O)O[C@H]2C1Cl (some centres not stated) | 84.3 | > 50 |  | 

Row | Compound | inhibition at 10 µM (BMDM) [%] | CC50 at 48 h [1] [µM] | Activity [2] | inhibition (BMDM; time 7.0 day)
17 | CC(=O)O[C@H]1[C@@H](O)[C@](O)(CO)[C@@H]2[C@H](OC(C)=O)[C@@]3(O)[C@H](/C=C(COC(=O)CC(C)C)\C=C/[C@H](OC(C)=O)[C@@]2(C)[C@H]1OC(C)=O)OC(=O)[C@@H]3C | 100 | > 50 | inactive | 
18 | CC(=O)O[C@H]1/C=C\C(COC(=O)CC(C)C)=C/[C@@H]2OC(=O)[C@H](C)[C@@]2(O)[C@@H](OC(C)=O)[C@H]2[C@@]3(CO3)[C@H](OC(=O)CC(C)C)C[C@H](OC(C)=O)[C@]12C | 25 | > 50 |  | 
19 | C=C1[C@H]2O[C@]3([C@H](C)C(=O)O[C@H]3[C@H]1Cl)[C@@H](OC(C)=O)[C@H]1[C@]3(CC[C@H](OC(C)=O)[C@]1(C)[C@@H](OC(C)=O)[C@@H]2OC(C)=O)CO3 | 12.2 | > 50 |  | 
20 | CC(=O)O[C@H]1[C@@H](OC(=O)CC(C)C)[C@](O)(CO)[C@@H]2[C@H](OC(C)=O)[C@@]3(O)[C@H](/C=C(CO)\C=C/[C@H](OC(=O)COC(=O)CC(C)C)[C@@]2(C)[C@H]1OC(C)=O)OC(=O)[C@@H]3C | 30.8 | > 50 | inactive | 
21 | C=C1[C@H]2O[C@]3([C@@H](C)C(=O)O[C@H]3[C@H]1Cl)[C@@H](OC(C)=O)[C@H]1[C@@]3(CO3)[C@H](OC(=O)CC(C)C)C[C@H](OC(C)=O)[C@]1(C)[C@@H](OC(C)=O)[C@@H]2OC(C)=O | 51.7 | > 50 |  | 
22 | CC(=O)O[C@H]1[C@@H](O)[C@](O)(CO)[C@@H]2[C@H](OC(C)=O)[C@@]3(O)[C@H](/C=C(CO)\C=C/[C@H](OC(C)=O)[C@@]2(C)[C@H]1OC(=O)CC(C)C)OC(=O)[C@@H]3C | 57.6 | > 50 | inactive | 
23 | C=C1CC[C@H](OC(C)=O)[C@]2(C)[C@@H](OC(C)=O)C[C@@H](OC(C)=O)/C(COC(=O)CC(C)C)=C\[C@@H]3OC(=O)[C@H](C)[C@@]3(O)[C@@H](OC(C)=O)[C@@H]12 | 91.3 | > 50 |  | 
24 | CC(=O)O[C@H]1/C=C\C(CO)=C/[C@@H]2OC(=O)[C@H](C)[C@@]2(O)[C@@H](OC(C)=O)[C@H]2[C@@]3(CO3)[C@H](OC(=O)CC(C)C)C[C@H](OC(C)=O)[C@]12C |  | < 10 |  | 
25 | CC(=O)O[C@H]1CC/C(C)=C\[C@@H]2OC(=O)[C@H](C)[C@@]2(O)[C@@H](OC(C)=O)[C@H]2[C@]3(CC[C@H](OC(C)=O)[C@]12C)CO3 [JUNCEELLOLIDE K] | 86.6 | > 50 |  | 
26 | CC(=O)O[C@H]1/C=C\C(CCl)=C/[C@@H]2OC(=O)[C@H](C)[C@@]2(O)[C@@H](OC(C)=O)[C@H]2[C@@]3(CO3)[C@H](OC(=O)CC(C)C)C[C@H](OC(C)=O)[C@]12C | 29.1 | > 50 |  | 
27 | C=C1[C@H](OC(C)=O)C[C@H](OC(C)=O)[C@@]2(C)[C@@H](OC(C)=O)C[C@@H](OC(C)=O)[C@]3(CO3)[C@@H]2[C@H](OC(C)=O)[C@]2(O)[C@@H](C)C(=O)O[C@H]2[C@H]1Cl | 80.8 | > 50 |  | 
28 | CC(=O)OC1[C@@H](OC(=O)CC(C)C)[C@]2(CO2)[C@@H]2[C@H](OC(C)=O)[C@@]3(O)[C@H](/C=C(CCl)\C=C/[C@H](OC(=O)COC(=O)CC(C)C)[C@@]2(C)[C@H]1OC(C)=O)OC(=O)[C@@H]3C (some centres not stated) | 86.6 | > 50 |  | 
29 | C=C1CC[C@H](OC(C)=O)[C@]2(C)[C@@H](OC(C)=O)C[C@@H](OC(C)=O)/C(CO)=C\[C@@H]3OC(=O)[C@H](C)[C@@]3(O)[C@@H](OC(C)=O)[C@@H]12 | 40.7 | > 50 |  | 
30 | C=C1CC[C@H](OC(C)=O)[C@]2(C)[C@@H](OC(C)=O)C[C@@H](OC(C)=O)/C(C(=O)OC)=C\[C@@H]3OC(=O)[C@H](C)[C@@]3(O)[C@@H](OC(C)=O)[C@@H]12 | 49.4 | > 50 |  | 
31 | C=C1CC[C@H](OC(=O)CC(C)C)[C@]2(C)[C@@H](OC(C)=O)C[C@@H](OC(C)=O)/C(C)=C\[C@@H]3OC(=O)[C@H](C)[C@@]3(O)[C@@H](OC(C)=O)[C@@H]12 | 68 | > 50 |  | 
32 | C=C1CC[C@H](OC(C)=O)[C@]2(C)[C@@H](OC(C)=O)C[C@@H](OC(C)=O)/C(C)=C\[C@@H]3OC(=O)[C@H](C)[C@@]3(O)[C@@H](OC(C)=O)[C@@H]12 | 58.7 | > 50 |  | 
